Laboratory results: the supplement of paper PMC6045584
± gives the standard deviation of the averaged measurements.

Key:
[1] = compound: COc1cc2ncnc(Nc3ccc(F)c(Cl)c3)c2cc1NC(=O)/C=C/CN1CCCCC1; assay: surviving fraction relative to DMSO-only wells; higher = less growth inhibition; conditions: exposure time: 5 days
In short: (§1)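 Surviving fraction is CellTiter-Glo luminescence divided by the median of wells given DMSO only. For this, log-phase tumour cell lines went into 384-well plates at 250–500 cells per well and, 24 hours later, into five days of continuous inhibitor exposure at 0.5, 1, 5, 10, 50, 100, 500 and 1000 nM. Lines were screened three times and retained only if replicate Pearson r >0.7 and median Z' >0.3.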

OLAPARIB = compound: O=C(c1cc(Cc2n[nH]c(=O)c3ccccc23)ccc1F)N1CCN(C(=O)C2CC2)CC1 [OLAPARIB]; assay: as above; conditions: exposure time: 5 days
In short: as §1

Row | Test System | surviving fraction ([1]; 0.5 nM) | surviving fraction ([1]; 1 nM) | surviving fraction ([1]; 5 nM) | surviving fraction ([1]; 10 nM) | surviving fraction ([1]; 50 nM) | surviving fraction ([1]; 100 nM) | surviving fraction ([1]; 500 nM) | surviving fraction ([1]; 1000 nM) | surviving fraction (OLAPARIB; 0.5 nM) | surviving fraction (OLAPARIB; 1 nM) | surviving fraction (OLAPARIB; 5 nM) | surviving fraction (OLAPARIB; 10 nM) | surviving fraction (OLAPARIB; 50 nM) | surviving fraction (OLAPARIB; 100 nM) | surviving fraction (OLAPARIB; 500 nM) | surviving fraction (OLAPARIB; 1000 nM)
1 | MDAMB436 BREAST | 0.922 ± 0.08 | 0.975 ± 0.077 | 0.895 ± 0.021 | 0.971 ± 0.17 | 0.996 ± 0.053 | 0.89 ± 0.11 | 0.771 ± 0.065 | 0.706 ± 0.085 | 0.888 ± 0.1 | 0.878 ± 0.08 | 0.806 ± 0.056 | 0.795 ± 0.039 | 0.651 ± 0.011 | 0.606 ± 0.022 | 0.537 ± 0.022 | 0.469 ± 0.031
2 | MDAMB453 BREAST | 1.05 ± 0.021 | 1.04 ± 0.08 | 1.03 ± 0.1 | 1.09 ± 0.093 | 1.07 ± 0.044 | 0.887 ± 0.048 | 0.705 ± 0.033 | 0.509 ± 0.069 | 0.989 ± 0.063 | 1 ± 0.036 | 0.989 ± 0.07 | 0.964 ± 0.059 | 0.966 ± 0.042 | 0.936 ± 0.018 | 1.03 ± 0.025 | 0.916 ± 0.025
3 | MDAMB468 BREAST | 0.997 ± 0.094 | 1.04 ± 0.033 | 0.8783 ± 0.0035 | 0.854 ± 0.063 | 0.626 ± 0.013 | 0.676 ± 0.035 | 0.438 ± 0.016 | 0.286 ± 0.014 | 0.928 ± 0.045 | 0.907 ± 0.026 | 0.935 ± 0.025 | 0.942 ± 0.029 | 0.861 ± 0.031 | 0.849 ± 0.049 | 0.835 ± 0.04 | 0.595 ± 0.047
4 | MFM223 BREAST | 1.094 ± 0.01 | 1.09 ± 0.042 | 1.14 ± 0.073 | 1.15 ± 0.072 | 1.2 ± 0.078 | 1.19 ± 0.06 | 0.914 ± 0.06 | 0.587 ± 0.055 | 1.13 ± 0.02 | 1.14 ± 0.1 | 1.13 ± 0.041 | 1.09 ± 0.085 | 0.87 ± 0.029 | 0.787 ± 0.037 | 0.748 ± 0.052 | 0.712 ± 0.025
5 | MG63 BONE | 1.04 ± 0.072 | 1 ± 0.049 | 1.05 ± 0.033 | 1.06 ± 0.062 | 1.04 ± 0.056 | 1.03 ± 0.08 | 0.911 ± 0.039 | 0.89 ± 0.073 | 1.03 ± 0.034 | 1.061 ± 0.0049 | 1.06 ± 0.031 | 1.06 ± 0.033 | 1.023 ± 0.001 | 1.024 ± 0.01 | 0.939 ± 0.027 | 0.879 ± 0.019
6 | MHM BONE | 1.01 ± 0.044 | 0.998 ± 0.021 | 1.02 ± 0.025 | 0.998 ± 0.032 | 1.01 ± 0.011 | 1.03 ± 0.024 | 0.974 ± 0.011 | 0.926 ± 0.016 | 1.001 ± 0.0057 | 1.02 ± 0.014 | 1.04 ± 0.022 | 1.02 ± 0.021 | 1.1 ± 0.018 | 1.052 ± 0.0081 | 1.04 ± 0.018 | 1.02 ± 0.028
7 | NCIH441 LUNG | 1.08 ± 0.13 | 1.04 ± 0.041 | 1.05 ± 0.073 | 1.06 ± 0.04 | 0.981 ± 0.038 | 0.859 ± 0.12 | 0.689 ± 0.051 | 0.5 ± 0.013 | 1.02 ± 0.14 | 1.11 ± 0.052 | 0.998 ± 0.034 | 1.06 ± 0.068 | 1.02 ± 0.042 | 0.98 ± 0.037 | 0.98 ± 0.064 | 1.01 ± 0.042
8 | NOS1 BONE | 1.1 ± 0.045 | 1.15 ± 0.077 | 1.14 ± 0.051 | 1.17 ± 0.094 | 1.12 ± 0.16 | 0.968 ± 0.033 | 0.26 ± 0.011 | 0.135 ± 0.012 | 1.09 ± 0.13 | 0.985 ± 0.096 | 0.981 ± 0.063 | 0.999 ± 0.079 | 0.828 ± 0.062 | 0.773 ± 0.049 | 0.553 ± 0.065 | 0.521 ± 0.071
9 | NY BONE | 0.99 ± 0.014 | 0.975 ± 0.032 | 1.05 ± 0.032 | 1.01 ± 0.071 | 1.04 ± 0.044 | 1 ± 0.051 | 0.756 ± 0.011 | 0.514 ± 0.01 | 1.01 ± 0.016 | 1.03 ± 0.013 | 1.05 ± 0.039 | 1.05 ± 0.061 | 1.09 ± 0.031 | 1.06 ± 0.055 | 0.95 ± 0.022 | 0.849 ± 0.04
